The text below walks through data of patent US20240166645A1, “PYRIDOPYRIMIDINONE DERIVATIVE, PREPARATION METHOD THEREFOR, AND USE THEREOF” (Wuhan Humanwell Innovative Drug Research and Development …, priority 2021, published 2024).

Data set [1] in a line: Plasma protein binding by equilibrium dialysis, mouse plasma. Type of data set: in vitro ADME. The conditions noted are these: 37° C., read-out: Free fraction in plasma, Mouse (%). How it is done:
(§1) Plasma protein binding rate of compounds was detected by equilibrium dialysis (HTDialysis, HTD 96b). The compound was prepared into a […] stock solution with DMSO, and then 25-fold diluted with 0.05 M sodium phosphate buffer as a working solution. A blank 96-well plate was taken and preloaded with 380 μL of plasma per well. The plasma was then added with the working solution at 20 μL/well and mixed well, with the compound at a final concentration of 1 μM, containing 0.2% DMSO per well.
(§2) 100 μL of 0.05 M sodium phosphate buffer was added to the reception-side of each dialysis chamber (HTD 96b), and then 100 μL of plasma containing the compound was added to the supply-side. The dialysis chamber was covered with a plastic lid, shaken and incubated at 37° C. for 5 h.
(§3) After incubation, 25 μL of samples were taken from each of the supply-side and the reception-side of the dialysis chamber and placed in the blank 96-well plate. An equal volume of plasma was added to each of the supply-side samples while an equal volume of 0.05 M sodium phosphate buffer was added to each of the reception-side samples and mixed well. The 96-well plate was added with an acetonitrile solution containing internal standard at 200 μL per well, vortexed and shaken at 600 rpm for 10 min, and centrifuged at 5594 g for 15 min (Thermo Multifuge×3R). 50 μL of the supernatant was then transferred to a new 96-well plate, and the samples were mixed with 50 μL of ultra-pure water for LC-MS/MS analysis.
(§4) Plasma protein binding rate and free fraction were calculated using the following formulas: % binding rate=100×([supply-side concentration]5h−[reception-side concentration]5h)/[supply-side concentration]5h. % free fraction=100−% binding rate.
A general note: In equilibrium dialysis free small molecules cross a membrane that holds back macromolecules.

Data set [2] is described as follows: Plasma protein binding by equilibrium dialysis, human plasma. The note with it: 37° C., read-out: Free fraction in plasma, Human (%). Format: in vitro ADME. Here is the method: as §1, §2, §3, §4
The next data set deals with CYP3A4 (Homo sapiens (Human), UniProt P08684). Description: Inhibition test on cytochrome P450 subtype CYP3A4. Format: in vitro ADME. The conditions noted are these: compound 10 μM, human liver microsomes. Here is the method: The inhibitory potential of compounds on cytochrome P450 (CYP450) subtype CYP3A4 (two substrates of midazolam and testosterone) was detected. First, the compound to be tested was prepared into a 10 mM stock solution in DMSO solvent, and the CYP3A4 inhibitor ketoconazole was prepared as 10 mM, 2.5 mM and 2.5 mM stock solutions in DMSO solvent. The test compound and ketoconazole were diluted to 400-fold final concentration (compound: 10 μM, ketoconazole: 2.5 μM) with acetonitrile.
NADPH cofactor (10 mL of potassium phosphate buffer added with 66.7 mg NADPH) at 4-fold final concentration and substrates were prepared with potassium phosphate buffer (0.1 M, pH=7.4), with CYP3A4 substrate midazolam at a final concentration of […] and CYP3A4 substrate testosterone at a final concentration of 20 μM.
A human liver microsome solution at a concentration of 0.2 mg/mL was prepared with potassium phosphate buffer on ice. A solution of the compound to be tested and a control inhibitor (control compound) solution at 2-fold final concentration were prepared with the human liver microsome solution on ice. The test wells were added with […] of the test compound solution and the control inhibitor solution respectively, and then added with […] of the substrate for duplication. A 96-well assay plate and a NADPH solution were incubated at 37° C. for 5 min, and 15 μL of pre-heated 8 mM NADPH solution was added to the assay plate to initiate the reaction. A CYP3A4 assay plate was pre-incubated at 37° C. for 5 min. The plate was added with 120 μL of acetonitrile to terminate the reaction, and after quenching, the plate was shaken on a shaker (IKA, MTS 2/4) for 10 min (600 rpm/min), and then centrifuged for 15 min. After centrifugation, the supernatant was collected, and added with purified water in a ratio of 1:1 to perform LC-MS/MS detection. A ratio of a peak area of compound to a peak area of internal standard was obtained, and the peak area ratio of the compound was compared with the peak area ratio of the control inhibitor to calculate the inhibition rate.

For data set [3], the target named is T1, KRAS G12C-SOS1 (Homo sapiens (Human), UniProt Q07889). Put plainly: Inhibition test on KRAS G12C-SOS1 activity (Transcreener GDP-FI). Format: biochemical.
Target sequence in this assay (Q07889 564-1049 limits assumed): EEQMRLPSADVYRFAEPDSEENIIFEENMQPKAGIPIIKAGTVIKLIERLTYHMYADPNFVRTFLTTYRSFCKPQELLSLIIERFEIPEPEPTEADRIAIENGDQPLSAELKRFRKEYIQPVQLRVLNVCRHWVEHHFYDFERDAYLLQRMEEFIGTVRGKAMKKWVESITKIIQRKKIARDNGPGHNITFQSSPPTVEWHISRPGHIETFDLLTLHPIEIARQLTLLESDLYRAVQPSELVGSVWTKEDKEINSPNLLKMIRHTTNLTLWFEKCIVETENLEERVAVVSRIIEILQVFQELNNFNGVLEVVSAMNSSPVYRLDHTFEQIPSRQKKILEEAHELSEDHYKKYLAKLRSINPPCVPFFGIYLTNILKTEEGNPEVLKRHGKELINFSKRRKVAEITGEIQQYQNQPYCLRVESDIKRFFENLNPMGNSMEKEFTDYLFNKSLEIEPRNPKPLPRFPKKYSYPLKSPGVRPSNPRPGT
Protocol: The compound to be tested was prepared into a 10 mM stock solution with DMSO, and serially diluted using 1× test buffer (modified Tris buffer). The resulting compound solution was transferred to a 384-well plate, and the final content of DMSO was 0.25%, and an additional DMSO well without compound was set up as a high signal control.
1× test buffer (modified Tris buffer) was prepared. […] 5 μL of SOS1 and 5 μL of GTP were transferred to the 384-well plate, respectively.
GDP detection reagent was prepared using the test buffer. 10 μL of the detection reagent solution was transferred to the 384-well plate and incubated at room temperature for 2 h. After incubation, the plate was read on a multifunctional microplate reader (SpectraMax Paradigm) with an excitation wavelength of 580 nm and an emission wavelength of 620 nm. The fluorescence signal was read, and the inhibition rate was calculated as:
inhibition percentage=(high signal control−sample signal)/(high signal control−low signal control)×100, and IC50 values were calculated using Graphpad 5 software.
The target of data set [4] is T1, KRAS G12C-SOS1. Put plainly: Inhibition test of compounds on KRAS G12C::SOS1 binding. The note with it: GST-KRAS G12C, His-SOS1. How it is done:
The compound to be tested was prepared into a 10 mM stock solution with DMSO, and the compound was serially diluted using 1× test buffer. 0.1 μL of the compound solution with different concentrations was transferred to a 384-well plate. […] 5 μL of His-SOS1 was added to the 384-well plate, centrifuged at 1000 rpm for 1 min, and incubated at room temperature for 15 min.
After incubation, 10 μL of a mixed solution of anti-6his-Tb monoclonal antibody (Cisbio, Cat. No. 61HI2TLA) and anti-GST-XL665 monoclonal antibody (Cisbio, Cat. No. 61GSTXLA) was added to the test well, centrifuged at 1000 rpm for 1 min, and incubated at room temperature for 1 h.
After incubation, the fluorescence signal ratios at 665 nm and 615 nm were read on a multifunctional microplate reader (Perkin Elmer, Envision 2104), and the IC50 values were calculated using Graphpad 5 software.
Target sequence in this assay (Q07889 whole entry, stated change not applied): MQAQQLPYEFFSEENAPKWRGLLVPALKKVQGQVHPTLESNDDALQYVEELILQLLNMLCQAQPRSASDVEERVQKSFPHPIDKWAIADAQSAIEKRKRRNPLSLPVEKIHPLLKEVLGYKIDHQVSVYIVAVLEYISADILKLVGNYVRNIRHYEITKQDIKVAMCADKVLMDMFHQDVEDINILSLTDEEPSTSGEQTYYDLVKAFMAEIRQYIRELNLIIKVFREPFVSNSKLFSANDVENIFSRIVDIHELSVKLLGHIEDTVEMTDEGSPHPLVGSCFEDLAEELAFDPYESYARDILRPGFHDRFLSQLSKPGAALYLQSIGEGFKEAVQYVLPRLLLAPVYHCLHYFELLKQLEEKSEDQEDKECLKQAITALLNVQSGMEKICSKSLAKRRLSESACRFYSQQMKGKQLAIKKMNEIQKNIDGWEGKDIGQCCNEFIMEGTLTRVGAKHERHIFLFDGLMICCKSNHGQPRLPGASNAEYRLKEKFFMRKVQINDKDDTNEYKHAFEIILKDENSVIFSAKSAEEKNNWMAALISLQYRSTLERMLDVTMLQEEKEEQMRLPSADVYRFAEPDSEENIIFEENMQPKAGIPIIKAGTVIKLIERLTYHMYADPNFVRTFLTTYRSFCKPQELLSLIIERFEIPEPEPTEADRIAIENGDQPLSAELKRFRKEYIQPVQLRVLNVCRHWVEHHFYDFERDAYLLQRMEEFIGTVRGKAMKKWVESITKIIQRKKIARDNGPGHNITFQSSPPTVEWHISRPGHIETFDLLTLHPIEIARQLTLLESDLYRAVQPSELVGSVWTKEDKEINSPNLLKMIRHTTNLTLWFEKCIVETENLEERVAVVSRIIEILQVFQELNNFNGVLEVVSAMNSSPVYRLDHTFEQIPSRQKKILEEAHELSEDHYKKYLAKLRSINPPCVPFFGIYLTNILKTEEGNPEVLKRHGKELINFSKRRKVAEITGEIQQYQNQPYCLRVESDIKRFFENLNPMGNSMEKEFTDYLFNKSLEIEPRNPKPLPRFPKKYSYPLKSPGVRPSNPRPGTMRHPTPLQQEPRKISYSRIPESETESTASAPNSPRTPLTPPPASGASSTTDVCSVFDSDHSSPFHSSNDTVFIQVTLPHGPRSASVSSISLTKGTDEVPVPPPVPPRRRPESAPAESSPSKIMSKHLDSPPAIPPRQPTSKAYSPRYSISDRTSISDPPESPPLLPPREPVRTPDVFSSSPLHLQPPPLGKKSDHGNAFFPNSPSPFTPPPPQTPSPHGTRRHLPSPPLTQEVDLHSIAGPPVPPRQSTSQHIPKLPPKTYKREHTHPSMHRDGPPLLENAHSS

The subject of data set [5] is ERK phosphorylation level in DLD-1 cells. Description: Inhibition of ERK phosphorylation level in DLD-1 cells (intracellular western blot). Type of data set: cell-based. The note with it: Homo sapiens. Here is the method: Intracellular western blot quantitative analysis was used to detect the inhibitory level of compounds on ERK phosphorylation in DLD-1 cells.
DLD-1 cells (ATCC, CCL-221) were seeded in a T75 culture flask at 2.5×10^6 cells/flask and cultured in a RPMI 1640 medium containing 10% FBS for 2 days. On day 3, the cells were seeded on a 384-well plate, and cultured overnight at 37° C., 5% CO2. After overnight culture, the plate was added with serially diluted compounds (the final content of DMSO was 0.5%), the negative group was added with DMSO, and incubated in a 37° C., 5% CO2 incubator.
The cells were fixed, washed once with PBS, treated to disrupt membranes, and blocked at room temperature for 1 h. The blocking solution was removed. The plate was added with primary antibody (CST, Cat. No. #4370S), and incubated overnight at 4° C. The plate was washed 3 times with PBST (PBS solution added with 0.05% Tween-20) and soaked for 2 min each time. The plate was added with secondary antibody (LI-COR, Cat. No. 926-32211) and incubated at room temperature in the dark. The plate was washed 3 times with PBST and soaked for 2 min each time. The plate was centrifuged at 1000 rpm for 1 min, scanned on a two-color infrared laser imaging system (Odyssey® CLX) to read the signal.
Relative signal=800-channel signal values/700-channel signal values.
Relative expression level of ERK phosphorylation=(test compound−control compound I)/(DMSO group−control compound I)
IC50 values were calculated using Graphpad 5 software.
Background: In western blotting, separated proteins are transferred to a membrane and probed.

The mark [6] stands for this setting: pH 7.4, probe midazolam, substrate midazolam, read-out: CYP inhibition rate (%) CYP3A4 (midazolam).
The mark [7] stands for this setting: pH 7.4, probe testosterone, substrate testosterone, read-out: CYP inhibition rate (%) CYP3A4 (testosterone).

Read-outs that look alike come from different tables or passages of the source.

Chain of CYP3A4 (P08684 whole entry): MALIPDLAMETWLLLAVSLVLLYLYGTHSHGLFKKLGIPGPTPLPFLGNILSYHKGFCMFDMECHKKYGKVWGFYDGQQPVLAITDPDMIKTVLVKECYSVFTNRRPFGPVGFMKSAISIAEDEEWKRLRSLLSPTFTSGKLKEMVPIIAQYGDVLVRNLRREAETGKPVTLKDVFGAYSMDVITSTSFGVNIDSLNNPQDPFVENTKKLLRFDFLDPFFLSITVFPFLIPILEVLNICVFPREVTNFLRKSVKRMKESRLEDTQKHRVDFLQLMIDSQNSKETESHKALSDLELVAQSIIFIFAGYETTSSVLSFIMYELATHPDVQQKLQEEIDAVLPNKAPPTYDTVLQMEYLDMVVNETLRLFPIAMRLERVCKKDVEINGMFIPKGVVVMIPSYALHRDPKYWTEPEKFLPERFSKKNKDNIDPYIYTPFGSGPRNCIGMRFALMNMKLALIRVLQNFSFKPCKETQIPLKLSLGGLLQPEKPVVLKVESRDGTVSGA

For the molecule `Cc1nc(N[C@H](C)c2cccc(S(=O)(=O)C(F)F)c2C)c2cn(C3(CF)CC3)c(=O)cc2n1` [Compound I-1, (R)-4-((1-(3-((difluoromethyl)sulfonyl)-2-methylphenyl)ethyl)amino)-6-(1-(fluoromethyl)cyclopropyl)-2-methylpyrido[4,3-d]pyrimidin-7(6H)-one], the fraction unbound at 5 h, 1 µM in data set [1] was 0.054; in data set [2] it was 0.042. The inhibition (in general, the relative decrease from the control value, in per cent) at 5 min, 10 µM at CYP3A4 (setting [6]) is 17.8%; on CYP3A4 (setting [7]) it was 0%. Besides, the IC50 (usually the midpoint of a concentration-inhibition curve) against KRAS G12C-SOS1 [3] stood at 59 nM; at KRAS G12C-SOS1 [4], 6.87 nM; in data set [5] it was 102 nM.
For the molecule `Cc1nc(N[C@H](C)c2cccc(S(=O)(=O)C(F)(F)F)c2F)c2cn(C3(CF)CC3)c(=O)cc2n1` [Compound I-2, (R)-4-((1-(2-fluoro-3-((trifluoromethyl)sulfonyl)phenyl)ethyl)amino)-6-(1-(fluoromethyl)cyclopropyl)-2-methylpyrido[4,3-d]pyrimidin-7(6H)-one], the values for the fraction unbound at 5 h, 1 µM in data set [1] and in data set [2] were 0.028 and 0.015, respectively. Besides, the inhibition at 5 min, 10 µM was found to be 10.8% at CYP3A4 (setting [6]) and 0% at CYP3A4 (setting [7]). Moreover, the results for the IC50 (on KRAS G12C-SOS1 [3]; on KRAS G12C-SOS1 [4]; in data set [5]) were 102 nM, 7.73 nM and 58 nM, respectively.
